Test results: patent publication US20250353841A1 (BIOGEN MA INC., priority 2022, published 2025)

Tested on: mutant Huntington (HTT) protein
Assay: HTT Mutant HTRF iPSC assay (mHTT protein lowering)
Format: cell-based
Details: human iPSC derived from a HTT patient with a poly-Q49 mutation

`Cc1cn2nc(-c3cc(F)c4nc(N5CCC(N6CCC6)CC5)oc4c3)cc(C)c2n1` [Compound 494, 2-(4-(azetidin-1-yl)piperidin-1-yl)-6-(2,8-dimethylimidazo[1,2-b]pyridazin-6-yl)-4-fluorobenzo[d]oxazole] and `Cc1cn2nc(-c3cc(F)c4nc(N5CCCC(N6CCCCC6)C5)oc4c3)cc(C)c2n1` (centres unmarked) [Compound 490, 2-([1,3′-bipiperidin]-1′-yl)-6-(2,8-dimethylimidazo[1,2-b]pyridazin-6-yl)-4-fluorobenzo[d]oxazole] fall in the same range of IC50: 100 to 1000 nM for the first, 100 to 1000 nM for the second.

`Cc1cn2nc(-c3cc(F)c4nc(C5(F)CCNCC5)cn4c3)cc(C)c2n1` [Compound 158, 6-(8-fluoro-2-(4-fluoropiperidin-4-yl)imidazo[1,2-a]pyridin-6-yl)-2,8-dimethylimidazo[1,2-b]pyridazine] and `Cc1cn2nc(-c3cc(F)c4nc(CC5CCNCC5)cn4c3)cc(C)c2n1` [Compound 238, 6-(8-fluoro-2-(piperidin-4-ylmethyl)imidazo[1,2-a]pyridin-6-yl)-2,8-dimethylimidazo[1,2-b]pyridazine] cannot be ordered by IC50: under 100 nM for the first, under 100 nM for the second.

Compared with `Cc1cn2nc(-c3cc(F)c4nc(C5CCOCC5)cn4c3)cc(C)c2n1` [Compound 169, 6-(8-fluoro-2-(tetrahydro-2H-pyran-4-yl)imidazo[1,2-a]pyridin-6-yl)-2,8-dimethylimidazo[1,2-b]pyridazine], `Cc1cn2nc(-c3cc(F)c4nc(C5CCN(C6COC6)CC5)cn4c3)cc(C)c2n1` [Compound 99, 6-(8-fluoro-2-(1-(oxetan-3-yl)piperidin-4-yl)imidazo[1,2-a]pyridin-6-yl)-2,8-dimethylimidazo[1,2-b]pyridazine] is lower in IC50: 100 to 1000 nM for the first, under 100 nM for the second.

`Cc1cn2nc(-c3cc(F)c4nc(N5CCC6(CCN(C)CC6)CC5)oc4c3)cc(C)c2n1` [Compound 515, 6-(2,8-dimethylimidazo[1,2-b]pyridazin-6-yl)-4-fluoro-2-(9-methyl-3,9-diazaspiro[5.5]undecan-3-yl)benzo[d]oxazole] and `Cc1cn2nc(-c3cc(F)c4nc(N5CCC(N(C)C)CC5)oc4c3)cc2c(C)n1` [Compound 497, 1-(6-(4,6-dimethylpyrazolo[1,5-a]pyrazin-2-yl)-4-fluorobenzo[d]oxazol-2-yl)-N,N-dimethylpiperidin-4-amine] fall in the same range of IC50: 100 to 1000 nM for the first, 100 to 1000 nM for the second.

`Fc1cc(-c2ncc3cccn3n2)cn2cc(C3CCNCC3)nc12` [Compound 198, 2-(8-fluoro-2-(piperidin-4-yl)imidazo[1,2-a]pyridin-6-yl)pyrrolo[2,1-f][1,2,4]triazine] and `Cc1cc(-c2cc(F)c3nc(C4CCNCC4)cn3c2)nn2ccnc12` [Compound 102, 6-(8-fluoro-2-(piperidin-4-yl)imidazo[1,2-a]pyridin-6-yl)-8-methylimidazo[1,2-b]pyridazine] fall in the same range of IC50: 100 to 1000 nM for the first, 100 to 1000 nM for the second.

First: Cc1cn2nc(-c3cc(F)c4[nH]c(C5CCNCC5)nc4c3)cc(C)c2n1 [Compound 140, 6-(7-fluoro-2-(piperidin-4-yl)-1H-benzo[d]imidazol-5-yl)-2,8-dimethylimidazo[1,2-b]pyridazine]
Second: Cc1cn2cc(-c3cc(F)c4[nH]c(C5CCNCC5)nc4c3)cc2c(C)n1 [Compound 145, 5-(1,3-dimethylpyrrolo[1,2-a]pyrazin-7-yl)-7-fluoro-2-(piperidin-4-yl)-1H-benzo[d]imidazole]
The IC50 of the first is lower: under 100 nM for the first, 1000 to 9000 nM for the second. The first is the more potent here.

Compared with `Cc1cn2nc(-c3cc(F)c4nn(C5CCNCC5)nc4c3)cc(C(F)F)c2n1` [Compound 374, 6-[8-(difluoromethyl)-2-methyl-imidazo[1,2-b]pyridazin-6-yl]-4-fluoro-2-(4-piperidyl)benzotriazole], `Cc1cn2nc(-c3cc(F)c4cn(C5CCNCC5)nc4c3)cc(C)c2n1` [Compound 135, 6-(4-fluoro-2-(piperidin-4-yl)-2H-indazol-6-yl)-2,8-dimethylimidazo[1,2-b]pyridazine] is higher in IC50: under 100 nM for the first, 100 to 1000 nM for the second.

`Cc1cc(-c2cc(F)c3nc(C4CCN(C)CC4)cn3c2)cc2cn(C)nc12` [Compound 6, 5-(8-fluoro-2-(1-methylpiperidin-4-yl)imidazo[1,2-a]pyridin-6-yl)-2,7-dimethyl-2H-indazole] and `Cc1cn2nc(-c3cc(F)c4nc(C5CCN(C)CC5)cn4c3)ccc2n1` [Compound 4, 6-[8-fluoro-2-(1-methyl-4-piperidyl)imidazo[1,2-a]pyridin-6-yl]-2-methyl-imidazo[1,2-b]pyridazine] fall in the same range of IC50: 100 to 1000 nM for the first, 100 to 1000 nM for the second.

`Cc1cn2nc(-c3cc(F)c4nc([C@H]5C[C@]6(CN[C@H](C)C6)C5)cn4c3)cc(C)c2n1` (single isomer, unassigned) [Compound 178, 6-(8-fluoro-2-((2R*,4r,7R*)-7-methyl-6-azaspiro[3.4]octan-2-yl)imidazo[1,2-a]pyridin-6-yl)-2,8-dimethylimidazo[1,2-b]pyridazine] and `Cc1cn2nc(-c3cc(F)c4nc(C5CCNC6(CC6)C5)cn4c3)cc(C)c2n1` (centres unmarked) [Compound 110, 6-(8-fluoro-2-(4-azaspiro[2.5]octan-7-yl)imidazo[1,2-a]pyridin-6-yl)-2,8-dimethylimidazo[1,2-b]pyridazine] cannot be ordered by IC50: under 100 nM for the first, under 100 nM for the second.

Compared with `CNCCc1cn2cc(-c3cc(F)c4nn(C)cc4c3)cc(F)c2n1` [Compound 18, 2-(8-fluoro-6-(7-fluoro-2-methyl-2H-indazol-5-yl)imidazo[1,2-a]pyridin-2-yl)-N-methylethan-1-amine], `CNCCc1cn2cc(-c3cc(C)c4nc(C)cn4n3)cc(F)c2n1` [Compound 12, 2-(6-(2,8-dimethylimidazo[1,2-b]pyridazin-6-yl)-8-fluoroimidazo[1,2-a]pyridin-2-yl)-N-methylethan-1-amine] is lower in IC50: 1000 to 9000 nM for the first, 100 to 1000 nM for the second. The second is the more potent here.

First: Cn1cc2cc(-c3cc(F)c4nc(CC5CNC5)cn4c3)ccc2n1 [Compound 20, 5-(2-(azetidin-3-ylmethyl)-8-fluoroimidazo[1,2-a]pyridin-6-yl)-2-methyl-2H-indazole]
Second: Cn1cc2cc(-c3cc(F)c4nc(C5CCCNC5)cn4c3)ccc2n1 (centres unmarked) [Compound 16, 5-(8-fluoro-2-(piperidin-3-yl)imidazo[1,2-a]pyridin-6-yl)-2-methyl-2H-indazole]
The IC50 of the first is higher: 1000 to 9000 nM for the first, 100 to 1000 nM for the second. The second is the more potent here.

First: Cc1cn2nc(-c3cc(F)c4nc(NC(=O)CC5CCCN5C)nn4c3)cc(C)c2n1 (racemic) [Compound 329, N-(6-(2,8-dimethylimidazo[1,2-b]pyridazin-6-yl)-8-fluoro-[1,2,4]triazolo[1,5-a]pyridin-2-yl)-2-(1-methylpyrrolidin-2-yl)acetamide]
Second: Cc1cn2nc(-c3cc(F)c4nc(NC(=O)C5CCCN(C)C5)cn4c3)cc(C)c2n1 (single isomer, unassigned) [Compound 278]
The IC50 of the first is higher: 100 to 1000 nM for the first, under 100 nM for the second.

First: Cc1cn2nc(-c3ccc4nc(C5CCNCC5)c(F)n4c3)cc(C)c2n1 [Compound 557]
Second: Cc1cn2nc(-c3cc(Cl)c4nc(C5CCNCC5)cn4c3)cc(C)c2n1 [Compound 556, 6-(8-chloro-2-(piperidin-4-yl)imidazo[1,2-a]pyridin-6-yl)-2,8-dimethylimidazo[1,2-b]pyridazine]
The IC50 of the first is lower: under 100 nM for the first, 100 to 1000 nM for the second. The first is the more potent here.

`Cc1cn2nc(-c3cc(F)c4nc(C56CC(N(C)C)(C5)C6)cn4c3)cc(C)c2n1` [Compound 109, 3-(6-(2,8-dimethylimidazo[1,2-b]pyridazin-6-yl)-8-fluoroimidazo[1,2-a]pyridin-2-yl)-N,N-dimethylbicyclo[1.1.1] pentan-1-amine] and `Cc1cn2nc(-c3cc(F)c4nc(NC(=O)C5(C)CN(C)C5)cn4c3)cc(C)c2n1` [Compound 261, N-(6-(2,8-dimethylimidazo[1,2-b]pyridazin-6-yl)-8-fluoroimidazo[1,2-a]pyridin-2-yl)-1,3-dimethylazetidine-3-carboxamide] cannot be ordered by IC50: under 100 nM for the first, under 100 nM for the second.

`Cc1cn2nc(-c3ccc4nc(C5CCN(C)CC5)cn4c3)cc(C)c2n1` [Compound 552] and `Cc1cn2nc(-c3cc(F)c4nc([C@H]5[C@@H]6CN(CCF)C[C@@H]65)cn4c3)cc(C)c2n1` [Compound 216, 6-(8-fluoro-2-((1R,5S,6r)-3-(2-fluoroethyl)-3-azabicyclo[3.1.0]hexan-6-yl)imidazo[1,2-a]pyridin-6-yl)-2,8-dimethylimidazo[1,2-b]pyridazine] fall in the same range of IC50: 100 to 1000 nM for the first, 100 to 1000 nM for the second.

`COc1cc(-c2cc(F)c3nc(C)cn3c2)cc2nn(C3CCNCC3)nc12` [Compound 548, 6-(8-fluoro-2-methyl-imidazo[1,2-a]pyridin-6-yl)-4-methoxy-2-(4-piperidyl)benzotriazole] and `Cc1cn2cc(-c3cc(F)c4[nH]c(C5CCNCC5)nc4c3)cc(Cl)c2n1` [Compound 144, 5-(8-chloro-2-methylimidazo[1,2-a]pyridin-6-yl)-7-fluoro-2-(piperidin-4-yl)-1H-benzo[d]imidazole] fall in the same range of IC50: 1000 to 9000 nM for the first, 1000 to 9000 nM for the second.

`Cc1cn2nc(-c3cc(F)c4nc(C5CC6(CNC6)C5)nn4c3)cc(C)c2n1` [Compound 442, 6-(2,8-dimethylimidazo[1,2-b]pyridazin-6-yl)-8-fluoro-2-(2-azaspiro[3.3]heptan-6-yl)-[1,2,4]triazolo[1,5-a]pyridine] and `Cc1cn2nc(-c3cc(F)c4[nH]c(C5CC6CC(N)C6C5)nc4c3)cc(C)c2n1` (centres unmarked) [Compound 423, 3-(5-(2,8-dimethylimidazo[1,2-b]pyridazin-6-yl)-7-fluoro-1H-benzo[d]imidazol-2-yl)bicyclo[3.2.0]heptan-6-amine] fall in the same range of IC50: 100 to 1000 nM for the first, 100 to 1000 nM for the second.

First: Fc1cc(-c2ccc3nonc3c2)cn2cc(C3CCNCC3)nc12 [Compound 51, 5-(8-fluoro-2-(piperidin-4-yl)imidazo[1,2-a]pyridin-6-yl)benzo[c][1,2,5]oxadiazole]
Second: Cc1cc(-c2cc(F)c3nc(C4CCNCC4)cn3c2)nc2cn(C)nc12 [Compound 92, 5-(8-fluoro-2-(piperidin-4-yl)imidazo[1,2-a]pyridin-6-yl)-2,7-dimethyl-2H-pyrazolo[4,3-b]pyridine]
The IC50 of the first is higher: 1000 to 9000 nM for the first, under 100 nM for the second.

First: COc1cc(-c2cc(C)c3nn(C)cc3c2)cc2cn(C3CCNCC3)nc12 [Compound 544, 7-methoxy-2′,7′-dimethyl-2-(piperidin-4-yl)-2H,2′H-5,5′-biindazole]
Second: Cc1cc(-c2cc(F)c3nc(C4CCNCC4)oc3c2)cc2cn(C)nc12 [Compound 157, 6-(2,7-dimethyl-2H-indazol-5-yl)-4-fluoro-2-(piperidin-4-yl)benzo[d]oxazole]
The IC50 of the first is higher: 1000 to 9000 nM for the first, 100 to 1000 nM for the second.
